Starred links: 1 amine or outer side, 2 acyl side, 3 side chain; linkers in the order of their positions; H or OH if unused. Residues, ends and D or L forms follow the SMILES beside them. Groups on a side chain read outwards from the residue. *: point of attachment. Glutaryl = O=C(CCCC(=O)[*:2])[*:1]; X1 = CCCC/C=C\CCCCCCCC=NN*
What was measured:
Hela cells = experiment: EGFP pDNA transfection, flow cytometry, HeLa; type: cell-based; details: HeLa seeded at 60,000, 120,000 and 240,000 cells/mL
Description: For cytometry-based assays, the delivery of pDNA encoding for the expression of eGFP gene (GFP) in HeLa and A549 cells was performed. Amphiphilic molecule stock solutions in DMSO were diluted with DMEM and freshly mixed with pDNA stock solutions in DMEM prior to transfection experiments, to afford several complexes at different amphiphile concentration (2.5-10 μM) while maintaining a constant final pDNA concentration of 2 ng/μL. The mixture was shaken for 30 min at room temperature before the addition to the cells. The cell medium was aspirated, and cells were washed twice with PBS. Finally, 50 μL of the complex's solution were added to the cells and incubated for 4 h. After the incubation, the medium was replaced by 100 μL of fresh DMEM supplemented with 10% FBS. 72 hours after transfection the DMEM was removed, and cells were cultured for 5 min with 100 μL of trypsin. Then, 100 μL of PBS (supplemented with 2% FBS and 1% EDTA 0.5M) were added. Finally, the GFP fluorescent measurement was performed in a flow cytometer and the percentage of GFP positive (i.e., transfected cells) were quantified. Amphiphile transfection efficiency was compared to control, non-treated cells and all experiments were done in triplicate.
7.3(Leu-His) peptide with D-amino acids was synthesized. This peptide would be more resistant to the degradation by proteases. The inventors studied the delivery of EGFP pDNA using amphiphiles comprising either enantiomer (either 7.3(Leu-His) peptide with D-amino acids or with L-amino acids) and myristoleyl aldehyde to compare their transfecting activity in HeLa cells. Number of EGFP expressing cells was measured by flow cytometry.
Experiments in cultured cells at different confluence levels were performed to check the effect of this parameter on the activity of amphiphile 7.3(Leu-His) M. As described above, transfection experiments are usually performed on cells seeded the day before at a cell concentration of 60,000 cell/mL (100 μL/well). In the current example, transfection experiments with EGFP pDNA are performed in HeLa cells two and four times more concentrated (120,000 and 240,000 cells/mL, respectively). […] However, for this experiment more volume of complex amphiphile/pDNA was needed as the cell concentration was increased (50, 100 and 200 μL of complexes were used for 60,000, 120,000 and 240,000 cells/mL, respectively).
Several structural modifications were performed on the peptide 7.3(Leu-His). The delivery of EGFP pDNA in HeLa cells using amphiphiles comprising these peptides and myristoleyl aldehyde was tested. The modifications consisted of the modification in the order of the amino acids, the replacement of 1 to 3 K* residues for O* residues and the addition of 1 or 2 R residues on the N-terminus. […]

[1] = system: all the cell lines except for HepG2
mice = experiment: In vivo FLuc mRNA delivery, i.v. injection, concentrated formulation, BLI; details: 125 μM
Description: Amphiphile stock solutions were prepared in DMSO as described above, but in this case, the amphiphile was contacted directly with the solution of nucleic acid cargo in a suitable buffer, such as PBS, or phosphate buffer enriched with inorganic salts, without any predilution step of the amphiphile's DMSO solution in a suitable aqueous buffer. Delivery efficiency of mRNA by i.v. administration route was determined by bioluminescence imaging (BLI). […] Luciferase expression was evaluated over 24 h, starting at 1 h after the administration of mRNA complexes. After that time, mice were sacrificed, and each organ was analysed individually using bioluminescence imaging (BLI) for quantification of the expression. […] Transfection results with the optimal volume ratios (125 or 250 μM final amphiphile concentration) and expression quantification in organs for candidates 7.2 DO, 7.2 M, 9.2 DO and 9.2 M are presented in FIGS. 12A, 12B, 11A, 11B, 13A, 13B, 20A and 20B respectively.
FIGS. 19A and 19B show in vivo transfection experiments in mice using amphiphiles comprising peptide 13.2 with oleyl aldehyde (13.2 O). These figures show representative bioluminescence images of mice and the extracted organs following i.v. (intravenous) injection of FLuc mRNA/amphiphile 13.2 O complexes (125 and 250 μM of 13.2 O were used, as indicated) at different times (1 h, 4 h, 7 h and 24 h). […]

SMILES: CCCC/C=C\CCCCCCCC=NNC(=O)CCCC(=O)NCCCC[C@H](NC(=O)[C@H](CCCCNC(=O)CCCC(=O)NN=CCCCCCCC/C=C\CCCC)NC(=O)[C@H](CCCNC(=N)N)NC(=O)[C@H](Cc1c[nH]cn1)NC(=O)[C@H](CCCCNC(=O)CCCC(=O)NN=CCCCCCCC/C=C\CCCC)NC(=O)[C@H](CCCNC(=N)N)NC(C)=O)C(=O)N[C@@H](Cc1c[nH]cn1)C(N)=O [7.3(Leu-His) M] (Ac-RK([Glutaryl-X1])HRK([Glutaryl-X1])K([Glutaryl-X1])H-NH2)
- EGFP pDNA transfection at different cell confluence (Hela cells): performs equally well at all cell concentrations tested
- IC50 [1]: 13 to 24 µM
- effect of DMSO:aqueous volume ratio on bioluminescence (mice; ratios 1:100, 1:200, 1:400): 1:100 (DMSO:aqueous) ratios showed the highest bioluminescence values, with up to one order of magnitude luminescence enhancement as compared to 1:200 ratio
- biodistribution of bioluminescence (mice; concentrated formulation, 5 μg mRNA/mouse): a preferred spleen biodistribution of the bioluminescence was observed
